{
  "source": "patent US20230310434A1",
  "about": "“METHODS OF REDUCING THE LIKELIHOOD OF CARCINOID HEART DISEASE IN PATIENTS WITH NEUROENDOCRINE TUMORS” (TerSera Therapeutics LLC, priority 2022, published 2023)",
  "origin": "cited, not measured here",
  "key": {"[1]": {"system": "patients with carcinoid syndrome not adequately controlled with SSA therapy", "details": "TELESTAR; TE 250 or 500 mg three times daily; patients on stable dose SSA"}, "[2]": {"system": "patients with carcinoid syndrome (CS) diarrhea", "details": "TELECAST"}, "[3]": {"details": "TE 250 or 500 mg three times daily, patients on stable dose SSA"}},
  "data": [
    {"smiles": "CCOC(=O)[C@@H](N)Cc1ccc(-c2cc(O[C@H](c3ccc(Cl)cc3-n3ccc(C)n3)C(F)(F)F)nc(N)n2)cc1", "note": "[TE, (S)-ethyl 2-amino-3-(4-(2-amino-6-((R)-1-(4-chloro-2-(3-methyl-1H-pyrazol-1-yl)phenyl)-2,2,2-trifluoroethoxy)pyrimidin-4-yl)phenyl)propanoate]", "values": [
      {"measurement": "frequency of bowel movements", "setting": "[1]", "result": "reduced"},
      {"measurement": "urinary 5-HIAA levels", "setting": "[1]", "result": "reduced"},
      {"measurement": "efficacy when added to SSAs to treat carcinoid syndrome diarrhea", "setting": "[2]; TE 250 or 500 mg three times daily added to SSAs", "result": "effective"},
      {"measurement": "frequency of bowel movements", "setting": "[2]; [3]", "result": "reduced"},
      {"measurement": "urinary 5-HIAA levels", "setting": "[2]; [3]", "result": "reduced"}
    ]}
  ]
}
